Assay results as given in US11737459B2, “Use of nootkatone to kill sap-sucking insects” (EVOLVA SA, priority 2016, dated 2023).
“And” between values parts separate entries of the source, which are not always exact repeats. Equal entries are not always repeated. Where two headings read alike, the source gives them in different places.

Key:
[1] = system: Aphid (Schizaphis gramium); test: Laboratory filter-paper bioassay of aphid susceptibility to nootkatone; format: in vivo; conditions: 1% v/v nootkatone in ethanol on filter paper, 24 hours post introduction
Source text: This example describes a laboratory bioassay in which groups of aphids were exposed to a nootkatone-containing composition to determine aphid susceptibility to nootkatone.
(§1) One milliliter of a 1% v/v nootkatone in ethanol was applied directly to 9 cm filter paper discs using a micropipette. The filter papers were allowed to dry completely and cut to the appropriate size prior to the start of the test. Pure ethanol was used as a control.
Treated and untreated filter papers were cut into 2.5 inch (6.35 cm) squares and folded into envelopes to serve as containers for the test. Five replicates of 10 aphids were tested per treatment. After the aphids were placed inside, the openings were sealed using clips so that the aphids could not escape.
Aphids were observed after 24 hours post-introduction to the test containers.
(§2) Readings were discontinued if treated mortality reached 100%, or control mortality exceeded 20%.

[2] = system: Red flour beetle (Tribolium castaneum); test: Laboratory filter-paper bioassay, red flour beetles exposed to nootkatone; format: in vivo; parameters: unit not given here; conditions: 1% v/v nootkatone on filter paper
Source text: (§3) This example describes a laboratory bioassay in which groups of house flies and red flour beetles were exposed to a nootkatone-containing composition to determine their susceptibilities to low concentrations of nootkatone.
as §1, with “A negative control group (consisting of untreated replicates—ethanol only)” for “Pure ethanol”, “also assessed for comparative purposes.” for “used as a control.”
(§4) Treated and untreated filter papers were cut so that they covered the bottom of a suitable container for each test species as follows:
Flour beetles—Five replicates of 10 insects were tested. A Petri dish lid 3.54 inches (9 cm) in diameter was inverted and served as the substrate for a 2.75 inch (7 cm) treated filter paper circle. The small Petri dish bottom was inverted over the paper and had its sides treated with Fluon (or similar) to prevent climbing and force exposure with the filter paper. The entire Petri dish was enclosed with two rubber bands.
as §2

[3] = system: House fly (Musca domestica); test: Laboratory filter-paper bioassay, house flies exposed to nootkatone; format: in vivo; parameters: key to Dead, Means: % mortality of insects (treated mortality up to 100%); KD, Means / Affected, Means: unit not given here; conditions: 1% v/v nootkatone on filter paper
Source text: as §3
as §1, with “A negative control group (consisting of untreated replicates—ethanol only)” for “Pure ethanol”, “also assessed for comparative purposes.” for “used as a control.”
as §4
Flies—Five replicates of 10 insects were tested. Inverted 10 ounce (295 mL) clear plastic cups with a 0.5 inch (1.27 cm) hole burned into the center of the bottom, and with the sides coated with Fluon (or similar) were used as the treatment containers. The bottoms of the containers consisted of Petri dish lids 3.54 inches ([…]) in diameter lined with a treated filter paper circle the same diameter. The cup was placed over the filter paper in the lid and both were secured in place using 2 rubber bands. The insects were introduced through the hole in the cup, and a plastic disc was placed over the opening to prevent escapes.
as §2

[4] = system: honey bee (Apis mellifera); conditions: for 48-hour Mortality (%), replicates A-C: individual replicates
Method: A negative control group and a solvent control group were maintained concurrently. Three replicate test chambers were maintained in each control and treatment group, with 10 bees in each test chamber. […] The positive control test was conducted concurrently with the definitive test. […] OECD Guidelines for Testing of Chemicals. […] The cumulative mortality observed in the test groups was used to determine the LD50, LOEC, and NOEC.
The primary stock served as a dosing solution for the highest concentration (100 μg a.i./bee). […] Prior to dosing, young adult bees were removed from the frames, distributed into holding containers, and returned to the holding incubator. Approximately 50 bees were impartially placed in each of eight containers in preparation for use in the various treatment and control groups as needed during the dosing procedure.
The test chambers were stainless steel cylinders measuring approximately 9 cm in diameter and 9 cm high, with perforations for ventilation. Each end of the test chamber was covered with a disposable plastic petri dish (approximately 10 cm in diameter), and the bottom petri dish was lined with filter paper. An inverted glass vial containing approximately 10 mL of 50% (w/v) sucrose solution was inserted through the lid of the chamber. The opening of the vial was covered with gauze, which prevented leakage allowing the bees to feed ad libitum throughout the test period. The test chambers were identified by study number, dosage group, and replicate.
Prior to dosing, the bees in each holding container were immobilized with nitrogen. While anesthetized, bees were individually dosed with the appropriate dosing solution. Bees in the test substance, positive control, and solvent control groups were dosed by administering a 4 μL droplet of the appropriate dosing solution to the dorsal side of the thorax of each bee with an adjustable micropipette. Ten bees were impartially placed in each test chamber. Bees in the positive control treatment group were handled and dosed in the same manner. Solvent control bees were dosed with acetone. Negative control bees were not dosed but were handled identically to the treated bees. After dosing, test chambers were distributed into a testing incubator by indiscriminate draw.
The bees were maintained in continuous darkness during the test except during periods of dosing and observations.
The bees were observed and counted periodically to evaluate mortality and signs of toxicity or abnormal behavior.
The negative control group was used for comparison with the treatment groups.

## C=C(C)[C@@H]1CCC2=CC(=O)C[C@@H](C)[C@]2(C)C1 [Nootkatone, nootkatone]
[1]
  Affected, Means: 100.0%
  Dead, Means: 94.0%
  KD (knockdown), Means: 6.0%
[1]; listed as nootkatone
  Dead, Means: 94%
  KD (knockdown), Means: 6%
[2]; 30 minutes post introduction
  Affected, Means: 0.0
  Dead, Means: 0.0
  KD, Means: 0.0
[2]; 1 hour post introduction
  Affected, Means: 0.0
  Dead, Means: 0.0
  KD, Means: 0.0
[2]; 4 hours post introduction
  Affected, Means: 0.0
  Dead, Means: 0.0
  KD, Means: 0.0
[2]; 24 hours post introduction
  Affected, Means: 4.2
  Dead, Means: 0.0
  KD, Means: 4.2
[2]; 48 hours post introduction
  Affected, Means: 6.4
  Dead, Means: 6.4
  KD, Means: 0.0
[2]; 72 hours post introduction
  Affected, Means: 10.9
  Dead, Means: 10.9
  KD, Means: 0.0
[3]; 30 minutes post introduction
  Affected, Means: 0.0
  Dead, Means: 0.0
  KD, Means: 0.0
[3]; 1 hour post introduction
  Affected, Means: 0.0
  Dead, Means: 0.0
  KD, Means: 0.0
[3]; 4 hours post introduction
  Affected, Means: 0.0
  Dead, Means: 0.0
  KD, Means: 0.0
[3]; 24 hours post introduction
  Affected, Means: 14.0
  Dead, Means: 2.0
  KD, Means: 12.0
[3]; 48 hours post introduction
  Affected, Means: 28.0
  Dead, Means: 28.0
  KD, Means: 0.0
[3]; 72 hours post introduction
  Affected, Means: 44.0
  Dead, Means: 42.0
  KD, Means: 2.0
[4]; 6.25 μg a.i./bee topical
  48-hour Mortality Mean (%): 10%
  48-hour Mortality (%), replicates A-C: 0% and 10% and 20%
[4]; 12.5 μg a.i./bee topical
  48-hour Mortality Mean (%): 10%
  48-hour Mortality (%), replicates A-C: 0% and 10% and 20%
[4]; 25 μg a.i./bee topical
  48-hour Mortality Mean (%): 0%
  48-hour Mortality (%), replicates A-C: 0%
[4]; 50 μg a.i./bee topical
  48-hour Mortality Mean (%): 3.3%
  48-hour Mortality (%), replicates A-C: 0% (2×) and 10%
[4]; 100 μg a.i./bee topical
  48-hour Mortality Mean (%): 13.3%
  48-hour Mortality (%), replicates A-C: 10% (2×) and 20%
[4]; 48-hour mortality, highest concentration tested
  NOEC (No Observable Effect Concentration): 100 μg a.i./bee
[4]; all doses 6.25 to 100 μg a.i./bee, 48 hours, listed as Nootkatone 98%
  Mortality in the treatment groups at the end of the test: less than 50%
